Earlier results as cited in US5514673A, “Pharmaceutical composition containing lipophilic drugs” (priority 1993, dated 1996).

Key:
[1] = for first pass effect: oral
[2] = physiological saline solution
[3] = in vivo
[4] = sublingual and buccal, sex hormone compositions
[5] = animal tests

In the case of `C[C@]12CC[C@@H]3c4ccc(O)cc4CC[C@H]3[C@@H]1CC[C@@H]2O` [17β-estradiol], the oral effectiveness [1] is listed as “very limited oral effectiveness”, the first pass effect [1] is listed as “high first pass effect” and the “suitability of intranasal administration” value [2] is listed as “unsuitable”.

For `CC(=O)[C@H]1CC[C@H]2[C@@H]3CCC4=CC(=O)CC[C@]4(C)[C@H]3CC[C@]12C` [Progesterone, progesterone], the oral effectiveness [1] is listed as “very limited oral effectiveness” and the first pass effect [1] is listed as “high first pass effect”.

In the case of dimethyl-β-cyclodextrin, the “nephrotoxicity and haemolytic activity” value [3] is listed as “nephrotoxicity and haemolytic activity”, the “effect on the absorption” value [4] is listed as “virtually no effect on the absorption” and the “influence on drug uptake” value [5] is listed as “adversely influence the drug uptake”.
